{"source": "patent US10179355B2", "about": "“Bioremediation enhancing agents and methods of use” (JRW BIOREMEDIATION, LLC, priority 2007, dated 2019)", "test_system": "dechlorinating bacteria known to convert PCE to ethene", "assay": "Set G: Efficiency by VFA Analysis", "assay_type": "cell-based, Dehalococcoides and Dehalobacter spp.", "description": "Sets B, C, D, E, and G further contain figures and tables showing results of the characterization of the Efficiency and the Relative Efficiency of electron donor usage. Efficiency may be defined as the percent of electron donor utilized for dechlorination, and may be calculated by dividing the pmoles of Chloride ion generated by the pmoles of electron donor consumed as measured by either Volatile Fatty Acid (VFA) analysis (Sets B, C, and G) or Chemical Oxygen Demand (COD) analysis (Set D and E). The Relative Efficiency of the electron donor utilization may be defined as the Efficiency of the Electron Donor divided by the Efficiency of the Lactate Control.\nThe method used to calculate the consumption of the electron donor measured the propionate, acetate and formate levels to calculate the consumption of electron donor over time. The lactate and propionate fermented very rapidly resulting in acetate and formate as the only measurable VFAs.\nSet G contained microcosms that tested two different Yeast Metabolites (YM3 and YM4) and a Polysaccharide (PS1) for kinetics and efficiency of electron donor utilization using lactate and molasses as the electron donors. PS1 was also tested as an electron donor by itself.\nLactate at 11.2 mM (1,000 mg/L) and nutrient amendment at 1% of the electron donor levels (˜10 mg/L). Triplicate bottles received 2 micro liters of PCE and 2 ml of inoculum. The bottles were sampled 5 times over a 138 day period."}
{"smiles": "CC(O)C(=O)[O-].[Na+]", "note": "(stereo not drawn) [Lactate Control, sodium lactate]", "values": [{"measurement": "efficiency of electron donor utilization for dechlorination (in words)", "setting": "Set G", "value": "statistically more efficient an electron donor as compared to PS1 and molasses"}, {"measurement": "Estimated % Efficiency", "setting": "e^- used dechlorination / e^- used donor", "value": 5.392, "unit": "%"}, {"measurement": "Relative Efficiency", "setting": "relative to Lactate Control = 100%", "value": 100, "unit": "%"}]}
